Data set [1] deals with Type I RH strain T. gondii.
Data set [2] in a line: Brain penetration experiment. The class given is in vivo, mice. As to conditions: mouse, ip, 5 mg/kg.
Data set [3] concerns CRL-8155 human lymphocytic cells. The note with it: CRL-8155 cell line, 48 hours.
For data set [4], the system named is panel of ∼80 diverse human kinases. As to conditions: read-out: IC50s of the kinases inhibited below 1 μM; three of the 80 kinases.

Where only a bound is given, the exact number is not on record here.

Take `CCOc1ccc2cc(-c3nn(C(C)(C)C)c(N)c3C(N)=O)cnc2c1` [Compound 1]: the “T. gondii infection, peritoneal parasite count (in words)” value in data set [1] (po for 5 days, twice daily) is “significantly reduced T. gondii infection”. This molecule came in with a Kp in data set [2] of 0.158. Moreover, in data set [3], the cytotoxicity was above 30 µM.

Molecule `CCOc1ccc2cc(-c3nn(CC4CC4)c(N)c3C(N)=O)cnc2c1` [Compound 6] displayed a cytotoxicity in data set [3] above 40 µM.

For the molecule `CCOc1ccc2cc(-c3nn(C4CCC4)c(N)c3C(N)=O)cnc2c1` [Compound 7], the cytotoxicity in data set [3] was above 40 µM.

On to `CCOc1ccc2cc(-c3nn(C4CCCC4)c(N)c3C(N)=O)cnc2c1` [Compound 8], for which the cytotoxicity in data set [3] was above 40 µM.

`CCOc1ccc2cc(-c3nn(C4CCCCCC4)c(N)c3C(N)=O)cnc2c1` [Compound 11] registered a cytotoxicity in data set [3] above 40 µM.

Regarding `CCOc1ccc2cc(-c3nn(CC(C)(C)CO)c(N)c3C(N)=O)cnc2c1` [Compound 16], the cytotoxicity in data set [3] was above 40 µM.

`CCOc1ccc2cc(-c3nn(C(C)(C)C)c(N)c3C(N)=O)ccc2n1` [Compound 17]: the cytotoxicity in data set [3] was above 40 µM.

Regarding `CCOc1ccc2cc(-c3nn(CC4CC4)c(N)c3C(N)=O)ccc2n1` [Compound 19], the cytotoxicity in data set [3] was above 40 µM.

For the molecule `CCOc1ccc2cc(-c3nn(CC(C)(C)CO)c(N)c3C(N)=O)ccc2n1` [Compound 22], in data set [3], the cytotoxicity is above 40 µM.

For `CC(C)(C)n1nc(-c2cnc3cc(F)ccc3c2)c(C(N)=O)c1N` [Compound 23], the cytotoxicity in data set [3] is above 40 µM.

The molecule `COc1ccc2cc(-c3nn(C(C)(C)C)c(N)c3C(N)=O)cnc2c1` [Compound 28] showed a cytotoxicity in data set [3] above 40 µM.

`CC(C)Oc1ccc2cc(-c3nn(C(C)(C)C)c(N)c3C(N)=O)cnc2c1` [Compound 30]: the cytotoxicity in data set [3] is above 40 µM.

`CCCOc1ccc2cc(-c3nn(C(C)(C)C)c(N)c3C(N)=O)cnc2c1` [Compound 31] registered a cytotoxicity in data set [3] above 40 µM.

Take `CC(C)(C)n1nc(-c2cnc3cc(OCC4CC4)ccc3c2)c(C(N)=O)c1N` [Compound 32]: the cytotoxicity in data set [3] was above 40 µM.

Regarding `CC(C)(C)n1nc(-c2ccc3nc(OC4CC4)ccc3c2)c(C(N)=O)c1N` [Compound 35], the “T. gondii in the peritoneal fluid (in words)” value in data set [1] (20 mg/kg) is listed as “eliminated T. gondii from the peritoneal fluid”. Further, the “death of treated mice” value in data set [1] (50 mg/kg group, po) is “one mouse in the 35, 50 mg/kg group died on the fifth day of treatment”. Further, in data set [4], the IC50 fell in the range of 200 to 500 nM. In data set [3], the cytotoxicity was above 40 µM.

Molecule `CC(C)(C)n1nc(-c2ccc3nc(OC4CCC4)ccc3c2)c(C(N)=O)c1N` [Compound 37] returned a cytotoxicity in data set [3] above 40 µM.

These data come from article PMC4677665 (ACS Medicinal Chemistry Letters, 2015).
